Laboratory results published in ChEMBL document CHEMBL4308846, “How Selective Are Pharmacological Inhibitors of Cell-Cycle-Regulating Cyclin-Dependent Kinases?” (J Med Chem, 2018).
The source made the active and inactive calls. No cut-off for these calls is given here.

Key:
[1] = biological target: Cyclin-dependent kinase 1/cyclin B1 (Homo sapiens, UniProt P06493); assay: biochemical
[2] = biological target: Cyclin-dependent kinase 4/cyclin D1 (Homo sapiens, UniProt P11802); assay: biochemical
[3] = biological target: T1, N-lysine methyltransferase KMT5A (Homo sapiens, UniProt Q9NQR1); assay: Inhibition of SETD8 (unknown origin)
T1 sequence (Q9NQR1 whole entry): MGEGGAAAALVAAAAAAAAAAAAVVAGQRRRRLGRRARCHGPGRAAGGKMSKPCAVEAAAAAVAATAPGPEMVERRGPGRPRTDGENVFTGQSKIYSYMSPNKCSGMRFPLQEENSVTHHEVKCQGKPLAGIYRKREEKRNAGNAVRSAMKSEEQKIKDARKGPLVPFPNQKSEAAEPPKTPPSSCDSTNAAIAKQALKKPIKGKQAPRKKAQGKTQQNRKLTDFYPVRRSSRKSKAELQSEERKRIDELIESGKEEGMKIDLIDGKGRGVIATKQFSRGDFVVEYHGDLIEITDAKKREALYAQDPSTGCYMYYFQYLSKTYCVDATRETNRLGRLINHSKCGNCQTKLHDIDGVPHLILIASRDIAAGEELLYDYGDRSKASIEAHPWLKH

[4] = biological target: CDK7/Cyclin H/MNAT1 (Homo sapiens, UniProt P50613); assay: biochemical
[5] = biological target: Cyclin-dependent kinase 2/cyclin E1 (Homo sapiens, UniProt P24941); assay: biochemical
[6] = biological target: CDK9/cyclin T1 (Homo sapiens, UniProt P50750); assay: biochemical
[7] = biological target: CDK2/Cyclin A2 (Homo sapiens, UniProt P24941)
[8] = tested on: HCT-116; assay: Induction of cell cycle arrest in human HCT116 cells assessed as accumulation at S phase at 2.6 to 29.6 uM after 24 hrs by propidium iodide-staining based flow cytometry; assay type: functional
[9] = biological target: Cyclin-dependent kinase 5/CDK5 activator 1 (Homo sapiens, UniProt Q00535); assay: biochemical
[10] = tested on: HCT-116; assay: Induction of cell cycle arrest in CDK2 knocked out human HCT116 cells assessed as accumulation at G2/M phase at 0.8 to 5.9 after 24 hrs by propidium iodide-staining based flow cytometry; assay type: functional
[11] = biological target: T2, Cyclin-dependent kinase 5/CDK5 activator 1 (Homo sapiens) (UniProt Q00535+Q15078); assay: Inhibition of CDK5/p25 in human HCT116 cells assessed as induction of dephosphorylation of FAK at Ser732 residue at 1 to 5 uM after 24 hrs by Western blot analysis; assay type: cell-based
[12] = tested on: HCT-116; assay: Induction of cell cycle arrest in human HCT116 cells assessed as accumulation at G2/M phase at 0.2 to 13.2 uM after 24 hrs by propidium iodide-staining based flow cytometry relative to control; assay type: functional
[13] = biological target: Aurora kinase B (Homo sapiens, UniProt Q96GD4); assay: biochemical
[14] = tested on: HCT-116; assay: Induction of cell cycle arrest in human HCT116 cells assessed as accumulation at G2/M phase at 2.6 to 19.8 uM after 24 hrs by propidium iodide-staining based flow cytometry relative to control; assay type: functional
[15] = biological target: T3, Aurora kinase A (Homo sapiens, UniProt O14965); assay: Inhibition of GST-tagged AURORA A (unknown origin) expressed in baculovirus infected Sf9 cells using MBP as substrate
T3 sequence (O14965 whole entry): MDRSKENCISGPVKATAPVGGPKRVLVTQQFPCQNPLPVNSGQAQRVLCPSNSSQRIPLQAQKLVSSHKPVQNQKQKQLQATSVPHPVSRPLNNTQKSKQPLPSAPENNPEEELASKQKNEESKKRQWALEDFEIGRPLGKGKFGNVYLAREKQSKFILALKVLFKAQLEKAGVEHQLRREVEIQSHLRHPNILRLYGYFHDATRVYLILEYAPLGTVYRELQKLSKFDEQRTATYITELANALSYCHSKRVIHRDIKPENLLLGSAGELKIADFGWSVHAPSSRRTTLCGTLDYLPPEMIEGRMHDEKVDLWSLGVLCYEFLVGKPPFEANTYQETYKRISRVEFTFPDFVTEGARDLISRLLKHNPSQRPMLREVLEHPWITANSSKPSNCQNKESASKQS

[16] = tested on: HCT-116; assay: Induction of cell cycle arrest in human HCT116 cells assessed as reduction in accumulation at G1 phase at 8.8 to 100 uM after 24 hrs by propidium iodide-staining based flow cytometry; assay type: functional; design: scale not given: the % may be the effect or the level left
[17] = tested on: HCT-116; assay: Induction of cell cycle arrest in CDK2 knocked out human HCT116 cells assessed as accumulation at G2/M phase at 0.5 to 3.9 after 24 hrs by propidium iodide-staining based flow cytometry; assay type: functional
[18] = biological target: T2, Cyclin-dependent kinase 5/CDK5 activator 1 (Homo sapiens); assay: Inhibition of CDK5/p25 in human HCT116 cells assessed as induction of dephosphorylation of FAK at Ser732 residue at 10 to 50 uM after 24 hrs by Western blot analysis; assay type: cell-based
[19] = tested on: HCT-116; assay: Induction of cell cycle arrest in CDK2 knocked out human HCT116 cells assessed as accumulation at G2/M phase at 13.2 to […] after 24 hrs by propidium iodide-staining based flow cytometry; assay type: functional
[20] = tested on: HCT-116; assay: Induction of cell cycle arrest in CDK2 knocked out human HCT116 cells assessed as accumulation at G2/M phase at 100 to 500 nM after 24 hrs by propidium iodide-staining based flow cytometry; assay type: functional
[21] = tested on: HCT-116; assay: Induction of cell cycle arrest in human HCT116 cells assessed as reduction in accumulation at G1 phase 2.6 to 29.6 uM after 24 hrs by propidium iodide-staining based flow cytometry; assay type: functional
[22] = tested on: HCT-116; assay: Induction of cell cycle arrest in human HCT116 cells assessed as accumulation at G2/M phase 2.6 to 29.6 uM after 24 hrs by propidium iodide-staining based flow cytometry relative to control; assay type: functional
[23] = tested on: HCT-116; assay: Induction of cell cycle arrest in human HCT116 cells assessed as accumulation at G2/M phase at 0.05 to 0.5 uM after 24 hrs by propidium iodide-staining based flow cytometry relative to control; assay type: functional
[24] = biological target: Cyclin-dependent kinase 9 (Homo sapiens) (UniProt P50750); assay: Inhibition of CDK9 in human HCT116 cells assessed as induction of dephosphorylation of RNA polymerase 2 S2/S5 residues at 250 to 500 nM after 24 hrs by Western blot analysis; assay type: cell-based
[25] = biological target: Cyclin-dependent kinase 7 (Homo sapiens) (UniProt P50613); assay: Inhibition of CDK7 in human HCT116 cells assessed as induction of dephosphorylation of RNA polymerase 2 S2/S5 residues at 250 to 500 nM after 24 hrs by Western blot analysis; assay type: cell-based
[26] = biological target: T2, Cyclin-dependent kinase 5/CDK5 activator 1 (Homo sapiens); assay: Inhibition of CDK5/p25 in human HCT116 cells assessed as induction of dephosphorylation of FAK at Ser732 residue at 250 to 500 nM after 24 hrs by Western blot analysis; assay type: cell-based

Sequence of CDK7/Cyclin H/MNAT1 (P51946 whole entry): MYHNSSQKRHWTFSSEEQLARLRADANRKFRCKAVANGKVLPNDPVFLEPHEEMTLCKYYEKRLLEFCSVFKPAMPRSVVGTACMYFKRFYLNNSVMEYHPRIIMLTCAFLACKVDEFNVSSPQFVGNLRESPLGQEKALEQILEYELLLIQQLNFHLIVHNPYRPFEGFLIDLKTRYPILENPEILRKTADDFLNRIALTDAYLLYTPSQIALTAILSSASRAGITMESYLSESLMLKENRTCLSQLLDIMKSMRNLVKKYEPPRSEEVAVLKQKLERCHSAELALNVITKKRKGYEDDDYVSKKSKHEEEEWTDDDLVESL
Sequence of CDK7/Cyclin H/MNAT1 (P50613 whole entry): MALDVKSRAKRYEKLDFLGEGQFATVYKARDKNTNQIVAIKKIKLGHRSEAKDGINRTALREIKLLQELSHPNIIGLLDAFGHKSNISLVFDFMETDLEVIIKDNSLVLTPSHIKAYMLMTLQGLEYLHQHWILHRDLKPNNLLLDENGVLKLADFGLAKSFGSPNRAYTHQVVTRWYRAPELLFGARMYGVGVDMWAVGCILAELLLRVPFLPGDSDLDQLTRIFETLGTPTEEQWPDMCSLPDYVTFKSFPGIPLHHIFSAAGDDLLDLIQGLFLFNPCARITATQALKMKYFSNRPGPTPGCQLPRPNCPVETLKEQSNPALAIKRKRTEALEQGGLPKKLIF
Sequence of CDK7/Cyclin H/MNAT1 (P51948 whole entry, further chain): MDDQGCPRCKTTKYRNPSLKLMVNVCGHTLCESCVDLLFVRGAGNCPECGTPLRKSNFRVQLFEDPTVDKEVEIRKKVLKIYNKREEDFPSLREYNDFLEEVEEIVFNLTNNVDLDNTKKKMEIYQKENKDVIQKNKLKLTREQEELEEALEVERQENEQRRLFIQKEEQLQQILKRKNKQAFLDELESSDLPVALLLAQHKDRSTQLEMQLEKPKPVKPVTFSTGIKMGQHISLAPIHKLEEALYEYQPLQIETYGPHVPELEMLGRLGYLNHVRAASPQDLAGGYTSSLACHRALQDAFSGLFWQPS
Sequence of CDK9/cyclin T1 (O60563 whole entry): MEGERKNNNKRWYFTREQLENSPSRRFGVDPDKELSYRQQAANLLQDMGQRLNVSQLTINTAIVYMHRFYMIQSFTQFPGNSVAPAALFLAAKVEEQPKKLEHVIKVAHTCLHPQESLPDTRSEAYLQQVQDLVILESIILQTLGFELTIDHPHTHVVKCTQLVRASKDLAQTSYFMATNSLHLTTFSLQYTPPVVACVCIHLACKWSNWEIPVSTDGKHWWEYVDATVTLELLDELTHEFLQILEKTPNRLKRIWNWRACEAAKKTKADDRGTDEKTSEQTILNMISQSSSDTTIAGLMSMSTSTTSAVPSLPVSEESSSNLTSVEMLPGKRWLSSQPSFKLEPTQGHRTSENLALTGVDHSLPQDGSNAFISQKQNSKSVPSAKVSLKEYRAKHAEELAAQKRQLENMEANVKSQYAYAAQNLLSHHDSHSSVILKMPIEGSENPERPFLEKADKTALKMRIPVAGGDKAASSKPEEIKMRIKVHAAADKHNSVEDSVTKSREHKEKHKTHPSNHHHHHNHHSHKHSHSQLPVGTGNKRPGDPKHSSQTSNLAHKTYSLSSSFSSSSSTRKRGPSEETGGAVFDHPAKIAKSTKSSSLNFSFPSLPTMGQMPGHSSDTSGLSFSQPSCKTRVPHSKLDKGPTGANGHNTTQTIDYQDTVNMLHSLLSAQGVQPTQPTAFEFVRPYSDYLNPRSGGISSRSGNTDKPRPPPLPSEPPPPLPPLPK
Sequence of CDK9/cyclin T1 (P50750 whole entry): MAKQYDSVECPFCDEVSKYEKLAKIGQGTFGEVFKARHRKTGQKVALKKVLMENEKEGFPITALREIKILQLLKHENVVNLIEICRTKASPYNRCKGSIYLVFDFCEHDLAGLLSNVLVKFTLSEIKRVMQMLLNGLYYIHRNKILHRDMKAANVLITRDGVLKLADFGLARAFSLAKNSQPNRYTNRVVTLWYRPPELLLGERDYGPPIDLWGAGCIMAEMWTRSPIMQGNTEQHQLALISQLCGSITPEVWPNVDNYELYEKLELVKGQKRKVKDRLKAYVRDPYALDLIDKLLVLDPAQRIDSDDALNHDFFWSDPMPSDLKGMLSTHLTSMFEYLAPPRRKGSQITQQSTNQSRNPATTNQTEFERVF
Sequence of Cyclin-dependent kinase 1/cyclin B1 (P06493 whole entry): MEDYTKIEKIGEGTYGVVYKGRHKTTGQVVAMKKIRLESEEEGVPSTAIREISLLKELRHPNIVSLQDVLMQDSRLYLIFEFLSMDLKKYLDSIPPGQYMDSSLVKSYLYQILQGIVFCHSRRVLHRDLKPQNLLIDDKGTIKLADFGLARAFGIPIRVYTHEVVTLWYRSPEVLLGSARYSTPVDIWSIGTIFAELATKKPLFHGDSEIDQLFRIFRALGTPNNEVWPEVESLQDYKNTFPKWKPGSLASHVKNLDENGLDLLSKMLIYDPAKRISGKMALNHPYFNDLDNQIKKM
Sequence of Cyclin-dependent kinase 1/cyclin B1 (P14635 whole entry, further chain): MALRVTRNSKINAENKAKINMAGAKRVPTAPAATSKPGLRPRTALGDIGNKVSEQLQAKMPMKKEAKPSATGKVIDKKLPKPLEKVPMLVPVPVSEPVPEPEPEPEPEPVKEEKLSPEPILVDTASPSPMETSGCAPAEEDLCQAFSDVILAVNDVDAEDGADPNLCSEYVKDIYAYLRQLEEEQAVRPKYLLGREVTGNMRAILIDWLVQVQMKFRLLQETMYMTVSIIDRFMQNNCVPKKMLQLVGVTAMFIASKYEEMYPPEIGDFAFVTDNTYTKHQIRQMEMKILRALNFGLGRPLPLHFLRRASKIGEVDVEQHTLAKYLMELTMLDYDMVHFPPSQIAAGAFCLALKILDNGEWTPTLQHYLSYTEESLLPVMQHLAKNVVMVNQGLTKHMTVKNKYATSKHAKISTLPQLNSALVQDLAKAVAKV
Sequence of Cyclin-dependent kinase 4/cyclin D1 (P11802 whole entry): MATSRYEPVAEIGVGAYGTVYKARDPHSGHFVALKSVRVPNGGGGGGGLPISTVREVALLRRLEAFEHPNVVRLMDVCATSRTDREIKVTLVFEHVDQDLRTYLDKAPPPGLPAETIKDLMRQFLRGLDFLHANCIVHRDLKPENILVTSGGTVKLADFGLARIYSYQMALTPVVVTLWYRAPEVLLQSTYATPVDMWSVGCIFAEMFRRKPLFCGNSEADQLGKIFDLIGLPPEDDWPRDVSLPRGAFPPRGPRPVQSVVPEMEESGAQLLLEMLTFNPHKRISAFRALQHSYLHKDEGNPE
Sequence of Cyclin-dependent kinase 4/cyclin D1 (P24385 whole entry, further chain): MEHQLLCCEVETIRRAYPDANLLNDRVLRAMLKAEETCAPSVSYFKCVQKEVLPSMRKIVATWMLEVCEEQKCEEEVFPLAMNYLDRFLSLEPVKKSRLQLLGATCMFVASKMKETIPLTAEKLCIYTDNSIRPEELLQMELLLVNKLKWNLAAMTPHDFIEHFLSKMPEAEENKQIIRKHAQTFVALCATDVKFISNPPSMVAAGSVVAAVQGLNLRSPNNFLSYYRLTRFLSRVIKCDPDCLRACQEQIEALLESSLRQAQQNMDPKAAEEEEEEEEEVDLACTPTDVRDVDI
T2 sequence (Q00535 whole entry): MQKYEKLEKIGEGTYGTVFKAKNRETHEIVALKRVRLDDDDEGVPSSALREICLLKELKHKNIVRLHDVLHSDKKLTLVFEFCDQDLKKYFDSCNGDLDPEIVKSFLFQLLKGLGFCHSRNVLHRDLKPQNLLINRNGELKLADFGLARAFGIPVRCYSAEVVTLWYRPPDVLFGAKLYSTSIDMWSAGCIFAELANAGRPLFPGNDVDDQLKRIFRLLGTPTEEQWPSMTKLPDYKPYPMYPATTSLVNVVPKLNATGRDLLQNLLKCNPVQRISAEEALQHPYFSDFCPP
T2 sequence (Q15078 99-307 partner limits assumed): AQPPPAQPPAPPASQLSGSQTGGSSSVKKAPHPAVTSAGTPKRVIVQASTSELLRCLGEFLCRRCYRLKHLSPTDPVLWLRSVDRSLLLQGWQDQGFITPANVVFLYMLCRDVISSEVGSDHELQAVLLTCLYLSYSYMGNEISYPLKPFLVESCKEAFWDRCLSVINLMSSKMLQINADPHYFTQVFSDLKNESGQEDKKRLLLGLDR
Sequence of Cyclin-dependent kinase 5/CDK5 activator 1 (Q00535 whole entry): as the sequence (Q00535 whole entry) above
Sequence of Cyclin-dependent kinase 5/CDK5 activator 1 (Q15078 whole entry, further chain): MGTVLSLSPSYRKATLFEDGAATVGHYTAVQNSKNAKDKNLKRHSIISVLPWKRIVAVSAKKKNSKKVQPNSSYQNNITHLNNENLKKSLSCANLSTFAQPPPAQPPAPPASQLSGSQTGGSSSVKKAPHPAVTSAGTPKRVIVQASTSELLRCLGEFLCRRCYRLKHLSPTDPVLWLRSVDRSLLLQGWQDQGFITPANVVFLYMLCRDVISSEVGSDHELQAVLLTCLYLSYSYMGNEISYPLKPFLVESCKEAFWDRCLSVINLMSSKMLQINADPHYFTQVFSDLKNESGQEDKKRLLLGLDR
Sequence of Aurora kinase B (Q96GD4 whole entry): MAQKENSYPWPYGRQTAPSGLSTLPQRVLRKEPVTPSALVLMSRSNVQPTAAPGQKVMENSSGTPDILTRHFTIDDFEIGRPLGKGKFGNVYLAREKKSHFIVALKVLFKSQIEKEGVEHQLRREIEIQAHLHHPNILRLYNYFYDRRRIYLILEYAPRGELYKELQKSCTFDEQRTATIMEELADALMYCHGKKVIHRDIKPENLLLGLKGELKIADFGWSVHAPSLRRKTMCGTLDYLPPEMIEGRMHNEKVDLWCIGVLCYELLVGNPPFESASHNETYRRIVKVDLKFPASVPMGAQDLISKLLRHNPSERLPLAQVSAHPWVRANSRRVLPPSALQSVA

SMILES	IC50 [1] [nM]	IC50 [2] [nM]	IC50 [4] [nM]	IC50 [5] [nM]	IC50 [6] [nM]	IC50 [7] [nM]	IC50 [9] [nM]	Activity [10]	Activity [20]	also measured
Cc1ccc(NC2=CC(=O)c3sc(C)nc3C2=O)cc1	> 20000	9500	> 20000	> 20000	> 20000	> 20000	> 20000			IC50 [3]: 500 nM; Activity [8]: 15%
CCCCOc1c(C(=O)c2c(F)cc(C)cc2F)c[nH]c2nncc1-2	14	222	1600	6	1800	71	258	Active		inhibition [11]: Active; Activity [12]: 30 - 60%
O=C1Nc2ccccc2/C1=C\c1c(Cl)[nH]c2ccccc12	6700	> 20000	16000	9400	> 20000	13200	5800			IC50 [13]: 15600 nM; Activity [14]: >=60%; IC50 [15]: > 20000 nM
CC(C)c1cnc(NC(=O)Cc2ccccc2)s1	1700	20400	637	195	3400	353	458	Active	Active	Activity [16]: <=30%; Activity [17]: Active; inhibition [18]: Active; Activity [19]: Active
O=C1NC(=O)c2c1c1c3ccccc3[nH]c1c1[nH]c3cc(Br)ccc3c21	1500	91	> 20000	229	4000	185	154			Activity [21]: Active; Activity [22]: <=30%
Nc1nc(Nc2ccc(S(N)(=O)=O)cc2)nn1C(=S)Nc1c(F)cccc1F	2	59	66		30		0.2		Active	Activity [23]: >=60%; inhibition [24]: inactive; inhibition [25]: inactive; inhibition [26]: Active
